The text below walks through data of US20100179188A1, “NITROXIDE RADICAL AS TREATMENT FOR NEURODEGENERATION” (Office of Technology Transfer, NIH, priority 2007, published 2010).

In assay [1] the test system is IRP2−/− mice. The assay is described as follows: Hematocrit (anemia) of IRP2−/− mice on Tempo1 diet. Format: in vivo. How it is done: (§1) Diet: The mice were weaned 3-4 weeks after their birth. Immediately after weaning, mice were maintained on either a Tempo1-supplemented or control diet. In the Tempo1-supplemented diet, powdered Tempo1 was uniformly mixed with bacon-flavored mouse chow by a “cold press” technique (Bio-Serv, Frenchtown, N.J., USA) at a concentration of 10 mg/g of food. Bacon-flavored chow without Tempo1 was used as the control diet.

Assay [2] has as its system ferritin. Kind of assay: Immunohistochemistry of ferritin in hippocampus and cortex. Format: in vivo. The following applies: hippocampus and cortex of IRP2−/− mice. Here is the method: as §1
Immunohistochemistry: Paraffin-embedded tissue sections were boiled in a micro oven for 15 min for antigen retrieval in 10 mM citrate buffer pH 6.4 after dewaxing and rehydrating. The sections were blocked in blocking buffer (Tris-buffered saline pH 7.4, 5% nomial goat serum, 0.1% Tween-20) for 30 min, then were incubated with polyclonal rabbit anti-ferritin antibody for 2 h at room temperature, the protein-antibody complex was labeled by CY3-donkey anti-rabbit antibody (Jackson ImmunoResearch Laboratories, Inc., West Grove, Pa.), nuclei were labeled by DAPI as counterstaining. The slides were observed and the pictures were recorded with Nikon Eclipse E600 fluorescence microscope.
Immunohistochemical studies were performed to analyze ferritin expression in the hippocampus and cortexregions of the mouse brains. […] The overexpression of ferritin decreased with Tempo1 treatment.

Assay [3] concerns the target T1, IRP1 (Mus musculus, UniProt P28271).
T1 sequence (P28271 1-889): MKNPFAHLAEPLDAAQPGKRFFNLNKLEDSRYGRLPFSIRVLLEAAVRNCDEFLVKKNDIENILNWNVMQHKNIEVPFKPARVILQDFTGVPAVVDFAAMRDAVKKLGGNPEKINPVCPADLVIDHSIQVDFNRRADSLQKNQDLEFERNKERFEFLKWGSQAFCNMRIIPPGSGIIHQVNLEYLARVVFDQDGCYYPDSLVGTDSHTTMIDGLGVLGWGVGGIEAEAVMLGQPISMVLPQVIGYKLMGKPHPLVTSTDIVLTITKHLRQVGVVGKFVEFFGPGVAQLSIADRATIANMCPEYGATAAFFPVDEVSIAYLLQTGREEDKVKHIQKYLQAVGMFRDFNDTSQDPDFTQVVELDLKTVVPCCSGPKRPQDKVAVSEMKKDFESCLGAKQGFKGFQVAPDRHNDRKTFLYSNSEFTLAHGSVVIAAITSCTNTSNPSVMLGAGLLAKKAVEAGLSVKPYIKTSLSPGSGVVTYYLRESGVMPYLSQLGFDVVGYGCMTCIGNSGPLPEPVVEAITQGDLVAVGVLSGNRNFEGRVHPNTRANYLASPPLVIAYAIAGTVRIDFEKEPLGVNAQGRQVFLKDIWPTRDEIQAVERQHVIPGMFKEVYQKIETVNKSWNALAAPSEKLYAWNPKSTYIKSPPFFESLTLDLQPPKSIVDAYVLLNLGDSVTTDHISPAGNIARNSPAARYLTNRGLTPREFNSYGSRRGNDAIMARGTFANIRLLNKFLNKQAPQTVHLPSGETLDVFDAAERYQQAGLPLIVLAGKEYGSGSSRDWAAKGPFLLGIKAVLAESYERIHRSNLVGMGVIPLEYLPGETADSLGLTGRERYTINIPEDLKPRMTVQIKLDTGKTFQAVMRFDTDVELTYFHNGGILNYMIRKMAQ
Kind of assay: IRE-binding activity of IRP1 in IRP2−/− embryonic fibroblasts (gel shift). To be noted: 0.3 and 1.0 mM, 16 h. Format: cell-based. Details: Embryonic fibroblasts of 13-day old embryos were isolated from wild type, IRP1−/− mice and IRP2−/− mice; endogenous in cells; host or cells: mouse embryonic fibroblasts (wild type and IRP2−/−). How it is done:
Cells: Embryonic fibroblasts of 13-day old embryos were isolated from wild type, IRP1−/− mice and IRP2−/− mice as described in LaVaute et al. supra. Myc-tagged HEK 293 Tet-on cell line, in which IRP2 expression was inducible, was prepared and cultured as described Bourdon et al., Blood Cells Mol Dis, 31, 247-255 (2003). Erythroblasts were harvested from bone marrow and purified as described in Cooperman et al., Blood, 106, 1084-1091 (2005).
RNA mobility shift assays: Gel retardation assays were performed as described in Meyron-Holtz et al., EMBO J, 23, 386-395 (2004). Tissue lysates were prepared in an anaerobic chamber as described above in oxygen-depleted lysis buffer containing 10 mM HEPES (pH 7.2), 3 mM MgC12, 40 mM KCl, 5% glycerol, 0.2% Nonidet P-40, 5 mM DTT, 1 mM AEBSF, 10 μg/ml. Leupeptin and complete TM EDTA free protease inhibitor cocktail (Roche Applied Science, Indiana). […]
To study the effect of Tempo1 on the IRE-binding activity of IRP1, IRP2−/− embryonic fibroblasts that were maintained in culture supplemented with 0, 0.3 and 1.0 mM Tempo1, with or without ferric ammonium citrate (FAC), for 16 h. […] Quantification was performed with the IQMac (IRP1 activity) or NIH Image (protein levels) program. Error bars represent the standard deviation calculated from the results of two different sets of experiments.

Compound `CC1(C)CC(O)CC(C)(C)N1[O]` [Tempo1] registered a hematocrit in assay [1] (IRP2−/− mice after 8 months of Tempo1 diet (untreated IRP2−/− 46±5, WT 52±2)) of 46±4. The “mild anemia of IRP2−/− mice” value in assay [1] (IRP2−/− mice treated with Tempo1) was “did not improve”. Further, in assay [2], the overexpression of ferritin result is “decreased”. In assay [3], the “IRE-binding activity of IRP1” value is given as “activate IRP1”.
